PubChem BioAssay AID330 (DTP/NCI, 2004)
Values joined by “and” are separate entries in the source; they are usually repeats but may differ in a detail not shown here. Identical values can stand only once. Toxic doses and inconclusive results are not listed. Rule for the calls: active = survival T/C of 150% or more; inactive = T/C below 125% in these data. Peptide text beside a SMILES is read from it.

System: P388 leukemia ip, CD2F1 mice, survival T/C
Assay: NCI In Vivo Anticancer Drug Screen. Data for tumor model P388 Leukemia (intraperitoneal) in CD2F1 (CDF1) mice
Conditions: endpoint: median survival time, higher = longer survival
In short: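 Mice carrying the transplanted tumor received test compound or vehicle. Survival was recorded in each group, and the value is the treated-group measurement divided by that of the vehicle-treated control group.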

[1] = dose: 50.0 mg/kg/injection, schedule: Q01DX005 (ip), vehicle: saline with Tween-80
[2] = dose: 100.0 mg/kg/injection, schedule: Q01DX005 (ip), vehicle: saline with Tween-80
[3] = dose: 200.0 mg/kg/injection, schedule: Q01DX005 (ip), vehicle: saline with Tween-80
[4] = dose: 50.0 mg/kg/injection, schedule: Q01DX009 (ip), vehicle: Klucel (hydroxypropylcellulose) (HPC)
[5] = dose: 60.0 mg/kg/injection, schedule: Q01DX005 (ip), vehicle: saline
[6] = dose: 50.0 mg/kg/injection, schedule: Q01DX009 (ip), vehicle: saline
[7] = dose: 100.0 mg/kg/injection, schedule: Q01DX009 (ip), vehicle: saline
[8] = dose: 50.0 mg/kg/injection, schedule: Q01DX005 (ip), vehicle: Klucel (hydroxypropylcellulose) (HPC)
[9] = dose: 100.0 mg/kg/injection, schedule: Q01DX005 (ip), vehicle: Klucel (hydroxypropylcellulose) (HPC)
[10] = dose: 200.0 mg/kg/injection, schedule: Q01DX005 (ip), vehicle: Klucel (hydroxypropylcellulose) (HPC)

Measured: T/C

COc1ccc2c(NCCNc3c4ccccc4nc4cc(OC)ccc34)c3ccccc3nc2c1
inactive: dose: 0.62 mg/kg/injection, schedule: Q01DX009 (ip), vehicle: other 90 % of control | dose: 1.25 mg/kg/injection, schedule: Q01DX009 (ip), vehicle: other 90 % of control | dose: 2.5 mg/kg/injection, schedule: Q01DX009 (ip), vehicle: other 96 % of control | dose: 5.0 mg/kg/injection, schedule: Q01DX009 (ip), vehicle: other 100 % of control | dose: 10.0 mg/kg/injection, schedule: Q01DX009 (ip), vehicle: other 106 % of control | dose: 20.0 mg/kg/injection, schedule: Q01DX009 (ip), vehicle: other 96 % of control

Cc1noc(NS(=O)(=O)c2ccc(N=c3c4ccccc4n(Cc4ccccc4)c4ccccc34)cc2)c1C
inactive: [1] 96 % of control | [2] 94 % of control | [3] 87 % of control

COc1ccc(C(C)c2cc(C(C)(C)C)cc(C(C)(C)C)c2O)cc1 (configuration not stated)
inactive: dose: 50.0 mg/kg/injection, schedule: Q01DX005 (ip), vehicle: distilled water + alcohol 100 % of control | dose: 100.0 mg/kg/injection, schedule: Q01DX005 (ip), vehicle: distilled water + alcohol 96 % of control | dose: 200.0 mg/kg/injection, schedule: Q01DX005 (ip), vehicle: distilled water + alcohol 94 % of control

COc1ccc(C(=O)N2C(=O)CCC2=O)cc1
inactive: [4] 109 % of control | dose: 100.0 mg/kg/injection, schedule: Q01DX009 (ip), vehicle: Klucel (hydroxypropylcellulose) (HPC) 115 % of control | dose: 100.0 mg/kg/injection, schedule: Q04DX003 (ip), vehicle: Klucel (hydroxypropylcellulose) (HPC) 113 % of control | dose: 200.0 mg/kg/injection, schedule: Q04DX003 (ip), vehicle: Klucel (hydroxypropylcellulose) (HPC) 113 % of control | dose: 400.0 mg/kg/injection, schedule: Q04DX003 (ip), vehicle: Klucel (hydroxypropylcellulose) (HPC) 114 % of control

CC(C)=NNC1=NC(C)(C)P(=O)(NNc2ncccn2)S1 (configuration not stated)
inactive: dose: 15.0 mg/kg/injection, schedule: Q01DX005 (ip), vehicle: Klucel (hydroxypropylcellulose) (HPC) 107 % of control | dose: 30.0 mg/kg/injection, schedule: Q01DX005 (ip), vehicle: Klucel (hydroxypropylcellulose) (HPC) 105 % of control | dose: 60.0 mg/kg/injection, schedule: Q01DX005 (ip), vehicle: Klucel (hydroxypropylcellulose) (HPC) 93 % of control | [5] 98 % of control

COC(=O)c1cc2c(s1)CCC/C(Cl)=C(/C=O)C2
inactive: dose: 6.25 mg/kg/injection, schedule: Q01DX009 (ip), vehicle: saline with Tween-80 96 % of control | dose: 6.25 mg/kg/injection, schedule: Q01DX009 (ip), vehicle: saline 97 % of control | dose: 12.5 mg/kg/injection, schedule: Q01DX009 (ip), vehicle: saline with Tween-80 104 % of control and 94 % of control | dose: 12.5 mg/kg/injection, schedule: Q01DX009 (ip), vehicle: saline 91 % of control | dose: 25.0 mg/kg/injection, schedule: Q01DX009 (ip), vehicle: saline with Tween-80 106 % of control and 95 % of control | dose: 25.0 mg/kg/injection, schedule: Q01DX009 (ip), vehicle: saline 97 % of control | dose: 50.0 mg/kg/injection, schedule: Q01DX009 (ip), vehicle: saline with Tween-80 100 % of control and 107 % of control | [6] 101 % of control and 120 % of control | [7] 103 % of control

O=C1N=c2ccccc2=C1c1sc(=O)n(Cc2nc3ccccc3[nH]2)c1O
inactive: [8] 102 % of control | [9] 97 % of control | [10] 93 % of control

COc1ccc(C2CN(C(=O)c3ccccc3)N=C(c3ccccc3)O2)cc1 (configuration not stated)
inactive: [8] 100 % of control | [9] 101 % of control | [10] 94 % of control

CCCCNC(=O)c1cc(NC(=O)c2ccc(C(=O)Nc3cc(C(=O)NCCCC)cc(C4N=CCN4)c3)cc2)cc(C2=NCCN2)c1 (configuration not stated)
inactive: [1] 94 % of control | [2] 95 % of control

N#CC1(C#N)C2CCCCC21 (configuration not stated)
inactive: dose: 3.75 mg/kg/injection, schedule: Q01DX005 (ip), vehicle: saline with Tween-80 107 % of control | dose: 7.5 mg/kg/injection, schedule: Q01DX005 (ip), vehicle: saline with Tween-80 100 % of control | dose: 15.0 mg/kg/injection, schedule: Q01DX005 (ip), vehicle: saline with Tween-80 96 % of control

NC(Cc1cnc[nH]1)C(=O)NC(CO)C(=O)O (stereo not drawn) (H-His-Ser-OH; configuration not given here)
inactive: [5] 96 % of control | dose: 120.0 mg/kg/injection, schedule: Q01DX005 (ip), vehicle: saline 99 % of control | dose: 240.0 mg/kg/injection, schedule: Q01DX005 (ip), vehicle: saline 100 % of control

COC(=O)/C(C#N)=C/c1ccc2c(c1)OCO2
inactive: [8] 100 % of control | [9] 97 % of control | [10] 100 % of control

OC(C(c1ccccc1)c1ccccn1)(C(F)(F)F)C(F)(F)F (configuration not stated)
inactive: dose: 100.0 mg/kg/injection, schedule: Q04DX003 (ip), vehicle: saline with Tween-80 100 % of control | dose: 200.0 mg/kg/injection, schedule: Q04DX003 (ip), vehicle: saline with Tween-80 95 % of control | dose: 400.0 mg/kg/injection, schedule: Q04DX003 (ip), vehicle: saline with Tween-80 95 % of control

COc1cccc2c1C(=O)c1c(O)c3c(c(O)c1C2=O)C[C@@](O)(C(C)=O)CC3OC1CC(N/C(C)=C/C(=O)c2ccccc2)C(O)C(C)O1 (some centres not stated)
inactive: dose: 6.25 mg/kg/injection, schedule: Q04DX003 (ip), vehicle: saline with Tween-80 105 % of control | dose: 12.5 mg/kg/injection, schedule: Q04DX003 (ip), vehicle: saline with Tween-80 104 % of control | dose: 25.0 mg/kg/injection, schedule: Q04DX003 (ip), vehicle: saline with Tween-80 105 % of control and 107 % of control | dose: 50.0 mg/kg/injection, schedule: Q04DX003 (ip), vehicle: saline with Tween-80 101 % of control and 111 % of control

COc1ccc(CC(N)c2ccccc2)cc1 (configuration not stated)
inactive: [6] 96 % of control | [7] 98 % of control

NNc1ccc2cccc([N+](=O)[O-])c2n1
inactive: dose: 25.0 mg/kg/injection, schedule: Q01DX009 (ip), vehicle: other 106 % of control | dose: 50.0 mg/kg/injection, schedule: Q01DX009 (ip), vehicle: other 100 % of control | dose: 100.0 mg/kg/injection, schedule: Q01DX009 (ip), vehicle: other 100 % of control

O=S1(=O)N=C(N2CCOCC2)c2ccccc21
inactive: [1] 101 % of control | [2] 101 % of control | [3] 99 % of control

CC(=O)OC1CC2(OC(C)=O)CC(OC2=O)C1OC(C)=O (configuration not stated)
inactive: dose: 100.0 mg/kg/injection, schedule: Q01DX001 (ip), vehicle: Klucel (hydroxypropylcellulose) (HPC) 100 % of control | dose: 100.0 mg/kg/injection, schedule: Q04DX002 (ip), vehicle: Klucel (hydroxypropylcellulose) (HPC) 100 % of control | dose: 200.0 mg/kg/injection, schedule: Q01DX001 (ip), vehicle: Klucel (hydroxypropylcellulose) (HPC) 100 % of control | dose: 200.0 mg/kg/injection, schedule: Q04DX002 (ip), vehicle: Klucel (hydroxypropylcellulose) (HPC) 100 % of control | dose: 400.0 mg/kg/injection, schedule: Q01DX001 (ip), vehicle: Klucel (hydroxypropylcellulose) (HPC) 99 % of control | dose: 400.0 mg/kg/injection, schedule: Q04DX002 (ip), vehicle: Klucel (hydroxypropylcellulose) (HPC) 98 % of control

Cc1cc(C)c(S(=O)(=O)Sc2nnnn2C)c(C)c1
inactive: dose: 12.5 mg/kg/injection, schedule: Q01DX009 (ip), vehicle: Klucel (hydroxypropylcellulose) (HPC) 102 % of control | dose: 25.0 mg/kg/injection, schedule: Q01DX009 (ip), vehicle: Klucel (hydroxypropylcellulose) (HPC) 104 % of control | [4] 95 % of control and 98 % of control | dose: 200.0 mg/kg/injection, schedule: Q01DX009 (ip), vehicle: Klucel (hydroxypropylcellulose) (HPC) 98 % of control
